# Experimental data as given in patent US6337340B1, “Carboxylic acids and isosteres of heterocyclic ring compounds having multiple heteroatoms for vision and memory disorders” (GPI NIL Holdings, Inc., priority 1998, dated 2002).
# Marks after values point to notes of the source that are not given here.
# Tests used:
# [1] = Clearance (Table V comments); type: in vitro ADME
# [2] = tested on: retinal ganglion cell axons; experiment: Protection of retinal ganglion cell axons from degeneration following optic nerve transection (Table V); type: in vivo, rat; settings: ± SEM
# Source text: Efficacy of representative compounds from different immunophilin ligand series in protecting retinal ganglion cell axons from degeneration following optic nerve transection is set forth in Table V.
# FKBP12 = FKBP12 (Homo sapiens, UniProt P62942); experiment: Ki Test Procedure: inhibition of peptidyl-prolyl isomerase (rotamase) activity, chymotrypsin-coupled assay; type: biochemical; settings: apparent Ki; read-out: Ki rotomase
# Chain of FKBP12 (P62942 whole entry, species assumed): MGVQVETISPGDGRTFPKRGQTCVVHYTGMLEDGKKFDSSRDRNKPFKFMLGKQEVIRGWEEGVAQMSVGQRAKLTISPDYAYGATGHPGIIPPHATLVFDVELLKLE
# Source text: The inhibition of the prolyl peptidyl cis-trans isomerase activity of FKBP may be measured as an indicator of this affinity.
# These values are obtained as apparent Ki's.
# The cis-trans isomerization of an alanine-proline bond in a model substrate, N-succinyl-Ala-Ala-Pro-Phe-p-nitroanilide, is monitored spectrophotometrically in a chymotrypsin-coupled assay, which releases para-nitroanilide from the trans form of the substrate. The inhibition of this reaction caused by the addition of different concentrations of inhibitor is determined, and the data is analyzed as a change in first-order rate constant as a function of inhibitor concentration to yield the apparent Ki values.
# In a plastic cuvette are added 950 ml of ice cold assay buffer (25 mM HEPES, pH 7.8, 100 mM NaCl), 10 ml of FKBP (2.5 mM in 10 mM Tris-Cl pH 7.5, 100 mM NaCl, 1 mM dithiothreitol), 25 ml of chymotrypsin (50 mg/ml in 1 mM HCl) and 10 ml of test compound at various concentrations in dimethyl sulfoxide. The reaction is initiated by the addition of 5 ml of substrate (succinyl-Ala-Phe-Pro-Phe-para-nitroanilide, 5 mg/ml in 2.35 mM LiCl in trifluoroethanol).
# The absorbance at 390 nm versus time is monitored for 90 seconds using a spectrophotometer and the rate constants are determined from the absorbance versus time data files.
# [3] = tested on: retinal ganglion cells and optic nerve axons; experiment: In vivo retinal ganglion cell and optic nerve axon tests after optic nerve transection; parameters: species or system Sprague Dawley rats; settings: 90 days after transection
# Source text: A second groups received the same neuroimmunogphilin FKBP ligand dose for 28 days.
# All eyes and optic nerves stumps were removed.
# retinal ganglion cells = experiment: Retinal ischemia by raised intraocular pressure; type: in vivo, rat
# Source text: Retinal ganglion cells were retrogradely labeled in adult rate by bilateral injection of fluorogold in their lateral geniculate nuclei. Labeled ganglion cells in the normal rat retina appear as white profiles against the dark background (FIG. 1A). Complete retinal ischemia was produced by infusing normal saline solution into the retinal vitreous cavity of each eye until the intraocular pressure exceeded arterial blood pressure. 28 days after the ischemic episode extensive degeneration of retinal ganglion cell was evidenced by massive reduction in the density of fluorogold labeled cells (FIG. 1B).
# Optic nerves from vehicle treated cases examined 28 days after a 1 hour retinal ischemic episode are characterized by a decreased density of optic nerve axons and the appearance of numerous degenerating myelin figures (bright white filled circles).
# retina = experiment: Streptozotocin induced diabetes, retinal neovascularization and neuron loss; type: in vivo
# [4] = tested on: streptozotocin-induced diabetic rat; experiment: Streptozotocin-induced diabetic sensory neuropathy, hot plate and tail flick; type: in vivo, Male Wistar rats; settings: lesioned animals treated for 6 weeks at 10 mg/kg s.c.
# Description: The procedure involved using Male Wistar rats which were given a single injection of streptozotocin (65 mg/kg i.v.). Blood glucose levels were determined weekly for the first three weeks and on the last week of the experiment. Animals were evaluated weekly for signs of sensory neuropathy using the conventional hot plate and tail flick apparatus test procedures.
# aged rodents = experiment: Morris watermaze spatial learning and memory in aged rodents; type: in vivo, C57BL/6N-Nia mice; settings: daily 10 mg/kg
# Source text: The Morris watermaze is widely used for assessing spatial memory formation and retention in experimental animals. The test depends on the animal's ability to utilize spatial visual information in order to locate a submerged escape platform in a water tank. It is important that the tank itself be as devoid of specific visual features as possible—thus, it is always circular in shape, the sides are kept smooth and in uniform dull colors, and the water is rendered opaque with nontoxic watercolor pigment or powdered milk. This is to ensure that the animal navigates only by the use of more distant visual cues, or by the use of intra-maze cues specifically provided by the experimenter.
# The animals' path, speed, and swim time are tracked with a ceiling camera for later computerized analysis. Over the course of several successive trials, spatial learning can therefore be defined as a drop of distance swum, or time elapsed, from placement in the tank until escape onto the invisible platform. […]
# Retention testing began after 3 weeks of dosing using the same methods as the acquisition phase. Swim Distances (cm) were analyzed in a 7×5 ANOVA including Groups and Blocks (1-5) as factors in the analysis, treating Blocks as a repeated measure.
# [5] = tested on: retinal ganglion cells and optic nerve axons; experiment: In vivo retinal ganglion cell and optic nerve axon tests after optic nerve transection; parameters: species or system Sprague Dawley rats; settings: for ON axon Count: axonal density multiplied by ON area; for Distal optic nerve myelin basic protein Density: shrinkage: cross sectional area vs sham
# [6] = 28 day treatment beginning 8 weeks after onset of streptozotocin induced diabetes
# [7] = GPI 1046 first 14 days, 90 days after transection
# [8] = ONT, GPI 1046 14 days, 90 days after transection
# [9] = ONT, GPI 1046 28 days, 90 days after transection
molecule,measurement,setting,value
CN(C)C(=O)N1CCC[C@H]1C(=O)SCCCc1ccccc1 [N],Clearance,[1],21.9 µL/min
CCC(C)(C)C(=O)C(=O)N1CCC[C@H]1C(=O)CCCCc1cccnc1 [J],Clearance,[1],1.5 µL/min
CCC(C)(C)C(=O)C(=O)N1CCS[C@H]1C(=O)OCCCc1cccnc1 [F],RT97+ RGC axon density 11 days after ON transection (36 ON axon rescued),[2],55.1% ± 5.9% SEM
CCC(C)(C)C(=O)C(=O)N1CCCC[C@H]1C(=O)SCCC(c1ccccc1)c1ccccc1 [K],Clearance,[1],4.5 µL/min
GPI 1046,Ki,FKBP12,7.5 nM
same,Clearance,[1],63.8 µL/min
same,RT97+ RGC axon density 11 days after ON transection (36 ON axon rescued),[2],60.5% ± 3.9 SEM
same,preservation of axons of protected neurons in the proximal stump,"[3]; Example 14, 10 mg/kg/day s.c. 28 days, RT97 immunohistochemistry",preserved the axons of virtually all protected neurons
same,fascicular pattern of myelin labeling in the distal stump,[3]; GPI 1046 first 28 days,dramatic protection of the fascicular pattern of myelin labeling
same,pattern of myelin degeneration in the proximal stump (myelin basic protein immunohistochemistry),[3]; GPI 1046 first 28 days,dramatic preservation of the fascicular staining pattern
same,% surviving RGCs with ON axons,"[3]; ONT, GPI 1046 28 days",81.4%
same,ON head area (% sham),"[3]; ONT, GPI 1046 28 days",95%*
same,Spared RGC population,"[3]; ONT, GPI 1046 28 days","28,096*"
same,increased ON axon density,"[3]; ONT, GPI 1046 28 days, adjusted for optic nerve diameter",5.0X
same,Distal optic nerve myelin basic protein Density: myelin preservation,"[3]; ONT, GPI 1046 28 days, cross sectional area multiplied by myelin density",99% myelin % myelin preservation
same,Proximal optic nerve myelin basic protein Density,"[3]; ONT, GPI 1046 28 days, ± SEM",70 ± 6.3 SEM % recovery
same,protection of fluorogold labeled retinal ganglion cells,"retinal ganglion cells; 10 mg/kg s.c. 1 hour prior and 10 mg/kg/day for next four days, 28 days after ischemic episode",noticeable protection of a large proportion of the vulnerable ganglion cell population
same,density of degenerating myelin figures in optic nerve,retinal ganglion cells; 28 days after 1 hour retinal ischemic episode,dramatically decreased the density of degenerating myelin figures
same,protection of optic nerve axons from ischemic degeneration,"retinal ganglion cells; 28 days after 1 hour retinal ischemic episode, toluidine blue staining",protected the majority of optic nerve axons from degeneration
same,loss of neurons in the INL and GCL,"retina; 28 day treatment beginning 8 weeks after onset of diabetes, vs streptozotocin/vehicle controls",appeared to decrease the loss of neurons in both the INL and GCL
same,"neovascularization in the PR, ONL, OPL and INL",retina; [6],reduced neovascularization
same,neuronal loss in the ONL,retina; [6],did not appear to protect against neuronal loss in the ONL
same,hot plate and tail flick latency,[4],improvement in latency
same,"spatial memory performance (swim distance, retention testing)","aged rodents; aged impaired mice, retention testing after 3 weeks of dosing",significantly enhanced spatial memory performance
same,"difference between young and aged impaired GPI-1046 treated groups, retention phase","aged rodents; F1.69=3.09, P=0.08",no longer any statistically significant difference
same,ganglion cells population spared (perikaryal neuroprotection),"[5]; Example 14, 10 mg/kg/day s.c. 28 days, sacrificed 90 days after transection",25%
same,density of myelin in the distal stump,[5]; [7],slightly increase the density of myelin
same,pattern of myelin degeneration in the proximal stump (myelin basic protein immunohistochemistry),[5]; [7],did not alter the pattern of myelin degeneration
same,shrinkage of the distal stump,[5]; [7],did not protect against shrinkage
same,cross sectional shrinkage of the distal stump,"[5]; GPI 1046 first 28 days, 90 days after transection",prevented cross sectional shrinkage
same,% RGCs Rescued,[5]; [8],5.3%
same,% surviving RGCs with ON axons,[5]; [8],33.6%
same,ON head area (% sham),[5]; [8],76%
same,Spared RGC population,[5]; [8],"20,275"
same,increased ON axon density,"[5]; ONT, GPI 1046 14 days, 90 days after transection, adjusted for optic nerve diameter",1.5X
same,ON axon Count,[5]; [8],6820
same,Distal optic nerve myelin basic protein Density: myelin loss,"[5]; ONT, GPI 1046 14 days, 90 days after transection, cross sectional area multiplied by myelin density",47% loss
same,Distal optic nerve myelin basic protein Density: shrinkage,[5]; [8],33% shrinkage
same,ON Axon density,"[5]; ONT, GPI 1046 14 days, 90 days after transection, mean ± SEM RT97 labeled axons in 200 μm × 200 μm region",569 ± 23
same,Proximal optic nerve myelin basic protein Density,"[5]; ONT, GPI 1046 14 days, 90 days after transection, ± SEM",1.6 ± 3.0 SEM % recovery
same,RGC Counts,"[5]; ONT, GPI 1046 28 days 10 mg/kg/day sc, 90 days after transection, mean density ± SEM of Fluoro-gold labeled RGC in 400 μm × 400 μm gridfields",67.9 ± 5.8
same,ON axon Count,[5]; [9],"22,861*"
same,Distal optic nerve myelin basic protein Density: shrinkage,[5]; [9],56% less % less shrinkage
same,protection of optic nerve axons,"[5]; proximal stump, GPI 1046 first 14 days after transection, 90 days",5.3%
CCC(C)(C)C(=O)C(=O)N1CCCCC1C(=O)OC(CCc1ccccc1)CCc1ccccc1 (stereo not shown) [E],Clearance,[1],41.8 µL/min
same,RT97+ RGC axon density 11 days after ON transection (36 ON axon rescued),[2],56.6% ± 9.4% SEM
O=C(OCCCCc1ccccc1)[C@@H]1CCCCN1S(=O)(=O)Cc1ccccc1 [D],RT97+ RGC axon density 11 days after ON transection (36 ON axon rescued),[2],58.4% ± 6.4% SEM
CCC(C)(C)C(=O)C(=O)N1CCC[C@H]1C(=O)SCCC(c1ccccc1)c1ccccc1 [M],Clearance,[1],12.5 µL/min
same,RT97+ RGC axon density 11 days after ON transection (36 ON axon rescued),[2],−6.3% ± 3.9% SEM
CCC(C)(C)C(=O)C(=O)N1CCC[C@H]1C(=O)O [L],Clearance,[1],5.2 µL/min
same,RT97+ RGC axon density 11 days after ON transection (36 ON axon rescued),[2],7.8% ± 3.0% SEM
O=C(SCCCc1ccccc1)[C@@H]1CCCN1C(=O)NC12CC3CC(CC(C3)C1)C2 [B],Clearance,[1],7 µL/min
same,RT97+ RGC axon density 11 days after ON transection (36 ON axon rescued),[2],100.0% ± 5.2% SEM
O=C(SCCCc1ccccc1)[C@@H]1CCCN1S(=O)(=O)Cc1ccccc1 [C],Clearance,[1],31.1 µL/min
same,RT97+ RGC axon density 11 days after ON transection (36 ON axon rescued),[2],60.4% ± 3.1% SEM
